Measured values from US6066310A, “Diagnostic and therapeutic method for tumor using radiolabeled avidin” (Nihon Medi-Physics Co., Ltd., priority 1997, dated 2000).
Where two headings read alike, the source gives them in different places.

Conditions: 2 hours after biotin, LS180 xenografted mice
Method: LS 180-tumor xenografted mice received injection with 300 μg unlabeled avidin and 1-24 hours later injection with 0.3 μg In-111 labeled biotin. […] After 2 hours from the injection of biotin, 4-5 mice per group were sacrificed and measured for distribution of radioactivity.

[1] = biotin 1 hr after pre-targeting of avidin
[2] = biotin 4 hr after pre-targeting of avidin
[3] = biotin 8 hr after pre-targeting of avidin
[4] = biotin 24 hr after pre-targeting of avidin
[5] = without pre-targeting of avidin

What does the source list for O=C([O-])CN(CCN(CC(=O)[O-])CC(=O)NC(CCCCNC(=O)CCCCC1SCC2NC(=O)NC21)C(=O)O)CCN(CC(=O)[O-])CC(=O)NC(CCCCNC(=O)CCCCC1SCC2NC(=O)NC21)C(=O)O.[111In+3] (stereo not drawn) [radiolabeled biotin]?
Tumor/Blood ratio of radioactivity [1]: 160.3 ± 26.9; Tumor/Bone ratio of radioactivity [1]: 60.7 ± 13.7; Tumor/Kidney ratio of radioactivity [1]: 3.48 ± 0.94; Tumor/Liver ratio of radioactivity [1]: 4.19 ± 1.45; Tumor/Spleen ratio of radioactivity [1]: 5.14 ± 2.58; radioactivity per 1 g of organ: Blood [1]: 0.38 ± 0.08; radioactivity per 1 g of organ: Bone [1]: 0.99 ± 0.08; radioactivity per 1 g of organ: Intestine [1]: 1.03 ± 0.30; radioactivity per 1 g of organ: Kidney [1]: 17.44 ± 2.16; radioactivity per 1 g of organ: Liver [1]: 14.77 ± 2.84; radioactivity per 1 g of organ: Lung [1]: 1.07 ± 0.91; radioactivity per 1 g of organ: Muscle [1]: 0.10 ± 0.06; radioactivity per 1 g of organ: Spleen [1]: 12.85 ± 4.02; radioactivity per 1 g of organ: Stomach [1]: 3.24 ± 0.63; radioactivity per 1 g of organ: Tumor [1]: 59.28 ± 9.89; Tumor/Blood ratio of radioactivity [2]: 159.0 ± 50.9; Tumor/Bone ratio of radioactivity [2]: 107.3 ± 79.1; Tumor/Kidney ratio of radioactivity [2]: 12.26 ± 2.75; Tumor/Liver ratio of radioactivity [2]: 20.89 ± 5.43; Tumor/Spleen ratio of radioactivity [2]: 22.03 ± 9.18; radioactivity per 1 g of organ: Blood [2]: 0.25 ± 0.03; radioactivity per 1 g of organ: Bone [2]: 0.60 ± 0.45; radioactivity per 1 g of organ: Intestine [2]: 0.27 ± 0.06; radioactivity per 1 g of organ: Kidney [2]: 3.30 ± 0.94; radioactivity per 1 g of organ: Liver [2]: 1.92 ± 0.58; radioactivity per 1 g of organ: Lung [2]: 0.32 ± 0.11; radioactivity per 1 g of organ: Muscle [2]: 0.32 ± 0.22; radioactivity per 1 g of organ: Spleen [2]: 2.14 ± 1.24; radioactivity per 1 g of organ: Stomach [2]: 1.08 ± 0.44; radioactivity per 1 g of organ: Tumor [2]: 39.31 ± 11.3; Tumor/Blood ratio of radioactivity [3]: 52.6 ± 23.9; Tumor/Bone ratio of radioactivity [3]: 59.22 ± 35.9; Tumor/Kidney ratio of radioactivity [3]: 7.18 ± 2.66; Tumor/Liver ratio of radioactivity [3]: 48.14 ± 20.2; Tumor/Spleen ratio of radioactivity [3]: 40.87 ± 15.0; radioactivity per 1 g of organ: Blood [3]: 0.20 ± 0.03; radioactivity per 1 g of organ: Bone [3]: 0.20 ± 0.07; radioactivity per 1 g of organ: Intestine [3]: 0.11 ± 0.02; radioactivity per 1 g of organ: Kidney [3]: 1.41 ± 0.29; radioactivity per 1 g of organ: Liver [3]: 0.21 ± 0.04; radioactivity per 1 g of organ: Lung [3]: 0.19 ± 0.10; radioactivity per 1 g of organ: Muscle [3]: 0.06 ± 0.03; radioactivity per 1 g of organ: Spleen [3]: 0.26 ± 0.13; radioactivity per 1 g of organ: Stomach [3]: 0.13 ± 0.09; radioactivity per 1 g of organ: Tumor [3]: 10.49 ± 5.16; Tumor/Blood ratio of radioactivity [4]: 9.72 ± 2.07; Tumor/Bone ratio of radioactivity [4]: 9.42 ± 2.29; Tumor/Kidney ratio of radioactivity [4]: 1.39 ± 0.40; Tumor/Liver ratio of radioactivity [4]: 11.20 ± 3.77; Tumor/Spleen ratio of radioactivity [4]: 14.75 ± 5.59; radioactivity per 1 g of organ: Blood [4]: 0.15 ± 0.07; radioactivity per 1 g of organ: Bone [4]: 0.17 ± 0.13; radioactivity per 1 g of organ: Intestine [4]: 1.18 ± 1.35; radioactivity per 1 g of organ: Kidney [4]: 1.01 ± 0.23; radioactivity per 1 g of organ: Liver [4]: 0.13 ± 0.02; radioactivity per 1 g of organ: Lung [4]: 0.13 ± 0.06; radioactivity per 1 g of organ: Muscle [4]: 0.12 ± 0.16; radioactivity per 1 g of organ: Spleen [4]: 0.10 ± 0.01; radioactivity per 1 g of organ: Stomach [4]: 1.49 ± 1.61; radioactivity per 1 g of organ: Tumor [4]: 1.45 ± 0.70; Tumor/Blood ratio of radioactivity [5]: 5.78 ± 2.44; Tumor/Bone ratio of radioactivity [5]: 5.97 ± 3.51; Tumor/Kidney ratio of radioactivity [5]: 0.55 ± 0.22; Tumor/Liver ratio of radioactivity [5]: 3.90 ± 1.32; Tumor/Spleen ratio of radioactivity [5]: 3.94 ± 1.79; radioactivity per 1 g of organ: Blood [5]: 0.12 ± 0.03; radioactivity per 1 g of organ: Bone [5]: 0.25 ± 0.34; radioactivity per 1 g of organ: Intestine [5]: 0.49 ± 0.46; radioactivity per 1 g of organ: Kidney [5]: 1.23 ± 0.21; radioactivity per 1 g of organ: Liver [5]: 0.17 ± 0.05; radioactivity per 1 g of organ: Lung [5]: 0.14 ± 0.05; radioactivity per 1 g of organ: Muscle [5]: 0.20 ± 0.27; radioactivity per 1 g of organ: Spleen [5]: 0.18 ± 0.05; radioactivity per 1 g of organ: Stomach [5]: 0.12 ± 0.03; radioactivity per 1 g of organ: Tumor [5]: 0.70 ± 0.35
